In article PMC8068801, “Novel Benzenesulfonate Scaffolds with a High Anticancer Activity and G2/M Cell Cycle Arrest” (Cancers, 2021):
Where two headings read alike, the source gives them in different places.

Key:
HCT 116 p53^−/− cells = assay: MTS cytotoxicity assay, HCT 116 p53-/-; type: cell-based, human; settings: for IC50: Homo sapiens, HCT 116 p53^−/−, 72 h incubation, MTS; for Selectivity index, HCT 116 p53 −/−: NHDF vs HCT 116 p53 −/−
From the text: (§1) M. Rusin from the Maria Sklodowska-Curie Memorial Cancer Centre and Institute of Oncology in Gliwice, Poland. […] G. Kramer-Marek from the Institute of Cancer Research in London, United Kingdom. The human suspension chronic myelogenous leukemia cell line K562 and pancreas ductal adenocarcinoma cell line PANC-1 were purchased from Sigma-Aldrich (St. Louis, MO, USA), while the normal human dermal fibroblasts cell line NHDF were purchased from PromoCell. […] Each medium contained a combination of two antibiotics: penicillin and streptomycin (1% v/v; Gibco). All of these cell lines were grown under standard conditions at 37 °C with a 5% CO2 humidified atmosphere. Moreover, all of the cell lines were routinely tested for mycoplasma using the PCR technique with specific Mycoplasma primers to confirm that there was no contamination.
(§2) The assay was performed following a 72 h incubation with the various concentrations of the tested compounds. Then, 100 µL DMEM without phenol red with 20 µL of the CellTiter 96®AQueous One Solution-MTS (Promega, Promega, WI, USA) was added to each well and incubated for 1 h or 3 h (PANC-1) at 37 °C. The optical densities of the samples were measured at 490 nm using a multi-plate reader (Synergy 4, BioTek, Winooski, VT, USA). […] Each individual compound was tested in triplicate in a single experiment with each experiment being performed three or four times.

U-251 cells [1] = assay: MTS cytotoxicity assay, U-251; type: cell-based, human; settings: for IC50: Homo sapiens, U-251, 72 h incubation, MTS
From the text: as §1, §2

K562 cells = assay: MTS cytotoxicity assay, K562; type: cell-based, human; settings: for IC50: Homo sapiens, K562, 72 h incubation, MTS; for Selectivity index, K562: normal fibroblasts NHDF vs K562
From the text: as §1, §2

A549 cells [2] = assay: MTS cytotoxicity assay, A549; type: cell-based, human; settings: for IC50: A549, 72 h incubation, MTS; for Selectivity index, A549: NHDF vs A549
From the text: as §1, §2

ABL1 = biological target: T1, ABL1 (Homo sapiens, UniProt P00519); assay: Tyrosine kinase assay (Kinase Selectivity TK-2, ADP-Glo); type: biochemical; settings: read-out: Inhibitory Effect of the Tyrosine Kinase Activity, ABL1
T1 construct: purchased Promega
Protocol: (§3) Assays using the Kinase Selectivity TK-2 profiling systems and ADP-Glo Kinase Assay (both from Promega) were performed to determine the inhibition of the non-receptor tyrosine kinases. The protocol was previously designed and described by our group in reports. The experiments were performed at least four times. The data are expressed as the percentage of the inhibition activity of tyrosine kinase after treatment with the tested derivatives.

CSK = biological target: T2, CSK (Homo sapiens, UniProt P41240); assay: as above; type: biochemical; settings: read-out: Inhibitory Effect of the Tyrosine Kinase Activity, CSK
T2 construct: purchased Promega
Protocol: as §3

Lyn B = biological target: T3, Lyn B (Homo sapiens, UniProt P07948); assay: as above; type: biochemical; settings: read-out: Inhibitory Effect of the Tyrosine Kinase Activity, Lyn B
T3 construct: purchased Promega
Protocol: as §3

Src = biological target: T4, Src (Homo sapiens, UniProt P12931); assay: as above; type: biochemical; settings: read-out: Inhibitory Effect of the Tyrosine Kinase Activity, Src
T4 construct: purchased Promega
Protocol: as §3

Lck = biological target: T5, Lck (Homo sapiens, UniProt P06239); assay: as above; type: biochemical; settings: read-out: Inhibitory Effect of the Tyrosine Kinase Activity, Lck
T5 construct: purchased Promega
Protocol: as §3

Fyn A = biological target: T6, Fyn A (Homo sapiens, UniProt P06241); assay: as above; type: biochemical; settings: read-out: Inhibitory Effect of the Tyrosine Kinase Activity, Fyn A
T6 construct: purchased Promega
Protocol: as §3

BTK = biological target: T7, BTK (Homo sapiens, UniProt Q06187); assay: as above; type: biochemical; settings: read-out: Inhibitory Effect of the Tyrosine Kinase Activity, BTK
T7 construct: purchased Promega
Protocol: as §3

BRK = biological target: T8, BRK (Homo sapiens, UniProt Q13882); assay: as above; type: biochemical; settings: read-out: Inhibitory Effect of the Tyrosine Kinase Activity, BRK
T8 construct: purchased Promega
Protocol: as §3

PANC-1 cells = assay: MTS cytotoxicity assay, PANC-1; type: cell-based, human; settings: for IC50: Homo sapiens, PANC-1, 72 h incubation, MTS
From the text: as §1, §2

HCT 116 p53^+/+ cells = assay: MTS cytotoxicity assay, HCT 116 p53+/+; type: cell-based, human; settings: for IC50: Homo sapiens, HCT 116 p53^+/+, 72 h incubation, MTS
From the text: as §1, §2

MCF-7 cells = assay: MTS cytotoxicity assay, MCF-7; type: cell-based, human; settings: for IC50: Homo sapiens, MCF7, MCF-7, 72 h incubation, MTS; for Selectivity index, MCF-7: NHDF vs MCF-7
From the text: as §1, §2

NHDF cells = assay: MTS cytotoxicity assay, normal fibroblasts NHDF; type: cell-based; settings: NHDF normal human fibroblasts, 72 h incubation
From the text: as §1, §2

A549 cells [3] = tested on: A549 cells; design: method as in PMID 24530495; settings: cited from earlier work
U-251 cells [4] = assay: Cell cycle assay (Muse Cell-Cycle Kit), U-251; type: cell-based, human; settings: U-251, 0.13 µM to 2 µM, 24 h; 32.3% in untreated cells
Protocol: The K562, U-251 and NHDF cells were seeded in 3 cm Petri dishes (Nunc) at a density of 250,000 cells per well and incubated under standard conditions at 37 °C for 24 h. […] After a 24 h treatment, the assays were performed using a Muse Cell-Cycle Kit (Millipore, Burlington, MA, USA) according to the supplier’s instructions. Briefly, the cells were collected, washed with cold PBS and centrifuged at 300 g for 5 min. Afterwards, the cells were fixed in ice cold 70% ethanol and stored at −20 °C overnight. The next day, the cells were washed with cold PBS, centrifuged and resuspended in 200 μL of the Muse™ Cell Cycle Reagent. The samples were incubated for 30 min at room temperature in the dark. After staining, the cellular subpopulation values in the individual cell cycle phases were estimated using a cell cycle analysis using a Muse Cell Analyzer (Millipore). The experiments were performed at least four times.

T3 sequence (P07948 1-491 isoform P07948-2): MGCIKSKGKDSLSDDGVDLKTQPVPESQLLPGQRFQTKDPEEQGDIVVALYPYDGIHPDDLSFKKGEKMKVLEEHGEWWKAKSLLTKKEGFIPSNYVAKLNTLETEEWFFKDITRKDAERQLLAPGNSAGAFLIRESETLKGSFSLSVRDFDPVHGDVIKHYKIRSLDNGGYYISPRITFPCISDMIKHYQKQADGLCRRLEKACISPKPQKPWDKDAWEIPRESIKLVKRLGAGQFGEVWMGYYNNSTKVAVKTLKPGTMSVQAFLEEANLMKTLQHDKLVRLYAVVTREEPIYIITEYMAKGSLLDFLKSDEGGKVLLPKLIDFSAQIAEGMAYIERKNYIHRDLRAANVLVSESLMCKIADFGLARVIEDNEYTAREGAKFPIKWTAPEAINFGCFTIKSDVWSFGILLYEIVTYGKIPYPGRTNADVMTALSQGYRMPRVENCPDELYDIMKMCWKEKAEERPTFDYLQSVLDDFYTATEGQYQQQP
T4 sequence (P12931 whole entry): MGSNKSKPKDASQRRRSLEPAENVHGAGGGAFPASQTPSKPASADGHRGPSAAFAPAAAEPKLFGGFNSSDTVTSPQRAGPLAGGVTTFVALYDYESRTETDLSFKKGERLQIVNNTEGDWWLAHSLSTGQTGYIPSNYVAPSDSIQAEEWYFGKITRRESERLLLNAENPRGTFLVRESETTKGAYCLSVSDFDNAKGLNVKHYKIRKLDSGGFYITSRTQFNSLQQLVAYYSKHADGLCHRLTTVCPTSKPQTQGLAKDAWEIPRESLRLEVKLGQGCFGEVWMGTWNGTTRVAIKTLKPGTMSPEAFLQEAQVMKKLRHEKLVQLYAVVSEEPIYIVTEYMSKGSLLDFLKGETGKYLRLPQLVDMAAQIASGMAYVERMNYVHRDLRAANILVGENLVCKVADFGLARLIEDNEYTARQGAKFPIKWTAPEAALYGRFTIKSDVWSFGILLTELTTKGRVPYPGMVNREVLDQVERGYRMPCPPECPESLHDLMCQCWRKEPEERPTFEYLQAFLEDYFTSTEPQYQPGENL
T5 sequence (P06239 whole entry): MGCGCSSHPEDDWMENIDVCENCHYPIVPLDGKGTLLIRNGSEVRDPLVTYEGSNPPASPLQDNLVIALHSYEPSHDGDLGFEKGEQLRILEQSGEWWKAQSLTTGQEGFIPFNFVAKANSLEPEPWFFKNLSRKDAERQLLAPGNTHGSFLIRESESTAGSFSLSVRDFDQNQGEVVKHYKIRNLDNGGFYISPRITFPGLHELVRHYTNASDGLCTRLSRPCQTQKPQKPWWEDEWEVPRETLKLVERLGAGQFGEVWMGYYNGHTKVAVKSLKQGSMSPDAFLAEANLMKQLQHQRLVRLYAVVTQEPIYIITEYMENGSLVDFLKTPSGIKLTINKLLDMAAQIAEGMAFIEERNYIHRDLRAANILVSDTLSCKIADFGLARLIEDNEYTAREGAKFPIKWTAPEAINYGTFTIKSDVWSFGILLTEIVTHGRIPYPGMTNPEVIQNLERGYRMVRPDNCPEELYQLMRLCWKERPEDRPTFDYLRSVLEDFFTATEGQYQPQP
T6 sequence (P06241 whole entry): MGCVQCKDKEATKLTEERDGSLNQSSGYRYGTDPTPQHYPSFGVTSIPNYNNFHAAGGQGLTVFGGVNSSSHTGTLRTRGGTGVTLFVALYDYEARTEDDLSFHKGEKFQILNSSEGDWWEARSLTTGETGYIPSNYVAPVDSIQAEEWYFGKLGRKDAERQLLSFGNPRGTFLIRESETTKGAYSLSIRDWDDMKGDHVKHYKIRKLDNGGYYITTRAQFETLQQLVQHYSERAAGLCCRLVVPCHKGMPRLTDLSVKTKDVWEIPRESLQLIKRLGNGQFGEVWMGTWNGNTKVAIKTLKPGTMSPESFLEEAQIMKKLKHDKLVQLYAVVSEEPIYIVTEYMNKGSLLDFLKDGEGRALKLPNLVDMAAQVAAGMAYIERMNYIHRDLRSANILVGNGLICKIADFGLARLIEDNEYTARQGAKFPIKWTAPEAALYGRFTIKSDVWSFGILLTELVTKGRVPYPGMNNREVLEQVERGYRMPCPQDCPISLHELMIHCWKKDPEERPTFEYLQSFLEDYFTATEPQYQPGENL
T8 sequence (Q13882 whole entry): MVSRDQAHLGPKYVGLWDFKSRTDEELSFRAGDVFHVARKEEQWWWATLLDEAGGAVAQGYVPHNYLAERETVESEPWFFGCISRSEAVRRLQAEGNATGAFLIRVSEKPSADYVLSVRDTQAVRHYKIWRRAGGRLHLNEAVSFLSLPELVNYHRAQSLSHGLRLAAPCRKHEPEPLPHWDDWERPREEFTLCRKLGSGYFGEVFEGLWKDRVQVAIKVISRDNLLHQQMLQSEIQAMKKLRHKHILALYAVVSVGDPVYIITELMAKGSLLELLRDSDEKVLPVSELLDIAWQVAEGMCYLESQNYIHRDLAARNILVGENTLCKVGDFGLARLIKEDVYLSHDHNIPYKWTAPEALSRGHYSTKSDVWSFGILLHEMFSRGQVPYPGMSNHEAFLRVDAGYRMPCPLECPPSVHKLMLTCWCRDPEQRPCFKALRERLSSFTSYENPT
T1 sequence (P00519 whole entry): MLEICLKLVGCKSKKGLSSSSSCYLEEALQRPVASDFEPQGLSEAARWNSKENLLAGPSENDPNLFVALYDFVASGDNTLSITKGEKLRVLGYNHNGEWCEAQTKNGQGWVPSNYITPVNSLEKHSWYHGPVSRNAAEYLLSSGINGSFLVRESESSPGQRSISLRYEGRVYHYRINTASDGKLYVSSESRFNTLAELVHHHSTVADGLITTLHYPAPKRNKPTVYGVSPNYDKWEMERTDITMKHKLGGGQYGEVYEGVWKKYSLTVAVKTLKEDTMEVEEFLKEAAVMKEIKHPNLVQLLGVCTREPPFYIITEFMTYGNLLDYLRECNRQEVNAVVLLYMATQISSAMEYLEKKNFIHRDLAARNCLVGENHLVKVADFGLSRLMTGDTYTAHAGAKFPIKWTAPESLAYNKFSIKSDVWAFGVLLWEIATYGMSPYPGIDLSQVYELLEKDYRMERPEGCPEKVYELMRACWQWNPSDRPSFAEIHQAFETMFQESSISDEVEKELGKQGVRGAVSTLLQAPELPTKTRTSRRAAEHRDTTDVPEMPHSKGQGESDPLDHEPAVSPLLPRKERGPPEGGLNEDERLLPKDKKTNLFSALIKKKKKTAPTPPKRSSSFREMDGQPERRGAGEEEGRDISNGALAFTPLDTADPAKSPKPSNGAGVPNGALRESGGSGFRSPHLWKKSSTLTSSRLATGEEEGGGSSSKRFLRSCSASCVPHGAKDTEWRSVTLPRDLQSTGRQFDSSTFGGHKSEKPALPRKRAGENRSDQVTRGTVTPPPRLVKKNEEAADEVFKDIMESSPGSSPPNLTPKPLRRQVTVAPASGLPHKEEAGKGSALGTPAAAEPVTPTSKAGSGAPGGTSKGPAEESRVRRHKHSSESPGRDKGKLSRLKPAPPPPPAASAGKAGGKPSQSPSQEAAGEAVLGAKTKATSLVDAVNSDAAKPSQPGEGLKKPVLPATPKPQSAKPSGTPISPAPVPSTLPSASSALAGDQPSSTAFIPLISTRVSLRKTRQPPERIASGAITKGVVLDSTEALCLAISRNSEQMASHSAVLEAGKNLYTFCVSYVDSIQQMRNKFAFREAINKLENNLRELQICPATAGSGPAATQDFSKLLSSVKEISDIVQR
T7 sequence (Q06187 whole entry): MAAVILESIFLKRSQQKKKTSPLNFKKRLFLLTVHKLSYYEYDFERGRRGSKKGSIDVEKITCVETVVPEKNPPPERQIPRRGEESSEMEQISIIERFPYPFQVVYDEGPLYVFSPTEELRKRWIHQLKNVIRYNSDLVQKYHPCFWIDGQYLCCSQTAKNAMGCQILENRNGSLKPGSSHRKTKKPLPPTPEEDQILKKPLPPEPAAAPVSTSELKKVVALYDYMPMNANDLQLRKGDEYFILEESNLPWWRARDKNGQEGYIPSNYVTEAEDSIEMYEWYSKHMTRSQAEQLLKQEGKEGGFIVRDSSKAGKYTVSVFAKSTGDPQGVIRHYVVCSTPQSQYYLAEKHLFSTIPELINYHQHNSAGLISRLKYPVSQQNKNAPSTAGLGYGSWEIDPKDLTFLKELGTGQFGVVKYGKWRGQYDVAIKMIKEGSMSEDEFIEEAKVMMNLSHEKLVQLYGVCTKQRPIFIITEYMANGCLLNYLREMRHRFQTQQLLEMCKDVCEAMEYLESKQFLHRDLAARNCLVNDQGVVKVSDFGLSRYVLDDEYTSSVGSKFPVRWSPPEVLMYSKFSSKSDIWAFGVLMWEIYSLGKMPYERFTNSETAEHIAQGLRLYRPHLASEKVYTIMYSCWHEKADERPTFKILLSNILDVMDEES

Row | inhibition at 0.5 µM (ABL1) | inhibition at 0.5 µM (CSK) | inhibition at 0.5 µM (Lyn B) | inhibition at 0.5 µM (Src) | inhibition at 0.5 µM (Lck) | inhibition at 0.5 µM (Fyn A) | inhibition at 0.5 µM (BTK) | inhibition at 0.5 µM (BRK) | SMILES | IC50 (HCT 116 p53^−/− cells) | Selectivity index, HCT 116 p53 −/− (HCT 116 p53^−/− cells) | IC50 (U-251 cells [1]) | IC50 (K562 cells) | Selectivity index, K562 (K562 cells) | IC50 (A549 cells [2]; Homo sapiens, A549, 72 h) | Selectivity index, A549 (A549 cells [2]) | IC50 (PANC-1 cells) | IC50 (HCT 116 p53^+/+ cells) | IC50 (MCF-7 cells) | Selectivity index, MCF-7 (MCF-7 cells) | IC50 (NHDF cells) | also measured
1 | 0% | 0% | 0% | 2.73% | 42.6% | 34.1% | 30.7% | 26.5% | COc1ccccc1/C=C/c1nc(OS(=O)(=O)c2ccc(C)cc2)c2ccc(Cl)cc2n1 [BS3, 7-chloro-2-((E)-2-(2-methoxyphenyl)ethenyl)quinazolin-4-yl 4-methylbenzenesulfonate] | 0.239 ± 0.03 µM | 39.39 | 1.76 ± 0.388 µM | 0.078 ± 0.027 µM | 120.71 | 7.65 µM | 1.23 | 0.097 ± 0.03 µM | 0.363 ± 0.028 µM | 4.6 ± 1.02 µM | 2.05 | 9.42 ± 1.65 µM | Selectivity index, U-251 (U-251 cells [1]; NHDF vs U-251): 5.36; IC50 (A549 cells [2]): 7.65 ± 0.987 µM; Selectivity index, PANC-1 (PANC-1 cells; NHDF vs PANC-1): 97.06; Selectivity index, HCT 116 p53+/+ (HCT 116 p53^+/+ cells; NHDF vs HCT 116 p53+/+): 25.94
2 | 0% | 20.1% | 0% | 0% | 11.2% | 0% | 8.59% | 20.2% | COc1ccc(/C=C/c2nc(OS(=O)(=O)c3ccc(C)cc3)c3ccccc3n2)cc1 [BS5, 2-((E)-2-(4-methoxyphenyl)ethenyl)quinazolin-4-yl 4-methylbenzenesulfonate] | > 25 µM | – | > 25 µM | 10.2 ± 0.819 µM | 2.45 | > 25 µM | 1.00 | > 25 µM | > 25 µM | > 25 µM | – | > 25 µM | –
3 | 0% | 21.1% | 0% | 0% | 37.3% | 62.6% | 17.9% | 0% | COc1ccc(/C=C/c2nc(OS(=O)(=O)c3ccc(C)cc3)c3ccccc3n2)c(OC)c1 [BS6, 2-((E)-2-(2,4-dimethoxyphenyl)ethenyl)quinazolin-4-yl 4-methylbenzenesulfonate] | 21.7 ± 1.19 µM | 1.15 | > 25 µM | 2.7 ± 0.519 µM | 9.26 | > 25 µM | 1.00 | > 25 µM | > 25 µM | 9.79 ± 1.23 µM | 2.55 | > 25 µM | –

Continued, compound first:

Row | SMILES | inhibition at 0.5 µM (ABL1) | inhibition at 0.5 µM (CSK) | inhibition at 0.5 µM (Lyn B) | inhibition at 0.5 µM (Src) | inhibition at 0.5 µM (Lck) | inhibition at 0.5 µM (Fyn A) | inhibition at 0.5 µM (BTK) | inhibition at 0.5 µM (BRK) | IC50 (HCT 116 p53^−/− cells) | Selectivity index, HCT 116 p53 −/− (HCT 116 p53^−/− cells) | IC50 (U-251 cells [1]) | IC50 (K562 cells) | Selectivity index, K562 (K562 cells) | IC50 (A549 cells [2]; Homo sapiens, A549, 72 h) | Selectivity index, A549 (A549 cells [2]) | IC50 (PANC-1 cells) | IC50 (HCT 116 p53^+/+ cells) | IC50 (MCF-7 cells) | Selectivity index, MCF-7 (MCF-7 cells) | IC50 (NHDF cells) | also measured
4 | COc1ccc(/C=C/c2nc(NCCCN(C)C)c3ccccc3n2)cc1 [CP-31398, reference compound] | – | – | – | – | – | – | – | – | 26.3 ± 1.41 µM | – | 18.8 ± 1.65 µM | 3.09 ± 0.36 µM | – | – | – | > 25 µM | 18.6 ± 0.92 µM | 27 ± 2.1 µM | – | 12.3 ± 0.54 µM | IC50 (A549 cells [2]; Homo sapiens): > 25 µM
5 | COc1c(NS(=O)(=O)c2ccc(C)cc2)cc(-c2ccc3ncnc(N4CCOCC4)c3c2)cc1C(N)=O [IV] | – | – | – | – | – | – | – | – | – | – | – | – | – | – | – | – | – | – | – | – | IC50 (A549 cells [3]): 2.18 µM
6 | CC(=O)O[C@H]1C(=O)[C@@]2(C)[C@H]([C@H](OC(=O)c3ccccc3)[C@]3(O)C[C@H](OC(=O)[C@H](O)[C@@H](NC(=O)c4ccccc4)c4ccccc4)C(C)=C1C3(C)C)[C@]1(OC(C)=O)CO[C@@H]1C[C@@H]2O [paclitaxel, reference compound] | – | – | – | – | – | – | – | – | – | – | – | – | – | – | – | – | – | – | – | – | Fraction of cells in the G2/M phase (U-251 cells [4]): about 69.9%
